{"source": "patent US11224234B2", "about": "“Functional chocolate” (IMMD SP. Z.O.O., priority 2016, dated 2022)", "test": "Pharmacokinetics of trans-Resveratrol in human serum, crossover clinical study", "type": "in vivo", "conditions": "single ingestion", "protocol": "This was a crossover clinical study on 6 volunteers of 35-65 years old, 3 women and 3 men. It was a multi-arm trial with one-week interval between each arm. Prior to every experiment volunteers were asked not to consume food, which may contain fruit, vegetable or grain polyphenols and tomato-based products. In the morning of the experiment volunteers were asked to abstain from any food and drink only water. The serum of the vein blood was analysed. […] Firstly, a sample was collected before ingesting of a product, then every hour for 4 hours after ingestion. To assess the pharmacokinetics (PK) of t-RSV of our dark and milk chocolate with embedded bilberry and aronia extracts, we undertook a crossover clinical study with the same group of volunteers. On top of these we added into this crossover study a few more groups with Nutella spread where chocolate is only a small ingredient. The design of the study and the sample collection was the same as in the glucose postprandial study described above.", "data": [{"smiles": "Oc1ccc(/C=C/c2cc(O)cc(O)c2)cc1", "note": "[t-RSV capsule, trans-Resveratrol]", "values": [{"measurement": "t-RSV AUC 0-4 hours", "value": "105 to 380", "unit": "ng/mL"}, {"measurement": "t-RSV Max", "value": "100 to 207", "unit": "ng/mL"}]}]}
